Measured values from patent publication US8623901B2, “Compounds for the treatment of CNS disorders” (Boehringer Ingelheim International GmbH, priority 2009, dated 2014).

Assays:
[1] = biological target: human PDE9A2 (Homo sapiens (Human), UniProt O76083); test: PDE9A2 enzymatic activity assay (scintillation proximity assay); assay type: biochemical
Experimental: As enzyme source, lysate (PBS with 1% Triton X-100 supplemented with protease inhibitors, cell debris removed by centrifugation at 13.000 rpm for 30 min) of SF 9 cell expressing the human PDE9A2 was used. The total protein amount included in the assay varied upon infection and production efficacy of the SF9 cells and lay in the range of 0.1-100 ng.
The assays were run in 384-well format. The test reagents as well as the enzyme and the substrate were diluted in assay buffer. The assay buffer contained 50 mM Tris, 8.3 mM MgCl2, 1.7 mM EGTA, 0.1% BSA, 0.05% Tween 20; the pH of assay buffer was adjusted to 7.5.
The activity of the positive control (minus the negative control=background) is set to 100% and activity in the presence of test compound is expressed relative to these 100%.
(§1) IC50 can be calculated with GraphPadPrism or other suited software setting the positive control as 100 and the negative control as 0. For calculation of IC50 dilutions of the test compounds (substrates) are to be selected and tested following the aforementioned protocol.

[2] = biological target: PDE1C (Homo sapiens (Human), UniProt Q14123); test: PDE1C assay (SPA, analogue to the PDE9A2 assay); assay type: biochemical; conditions: ratio PDE1C IC50 / PDE9A2 IC50
Excerpt: The reaction can be stopped by applying the same inhibitor than the one that is outlined above (1-(2-Chlorophenyl)-6-[(2R)-3,3,3-trifluoro-2-methyl-propyl]-1,5-dihydro-4H-pyrazolo[3,4-d]pyrimidine-4-one).
as §1

[3] = biological target: human PDE9A (Homo sapiens (Human), UniProt O76083); conditions: concentrations of up to 100 micromolar (μM); cited from earlier work
[4] = biological target: Murine PDE9A (Mus musculus (Mouse), UniProt O70628); conditions: cited from earlier work
Sequence of Murine PDE9A (O70628 whole entry): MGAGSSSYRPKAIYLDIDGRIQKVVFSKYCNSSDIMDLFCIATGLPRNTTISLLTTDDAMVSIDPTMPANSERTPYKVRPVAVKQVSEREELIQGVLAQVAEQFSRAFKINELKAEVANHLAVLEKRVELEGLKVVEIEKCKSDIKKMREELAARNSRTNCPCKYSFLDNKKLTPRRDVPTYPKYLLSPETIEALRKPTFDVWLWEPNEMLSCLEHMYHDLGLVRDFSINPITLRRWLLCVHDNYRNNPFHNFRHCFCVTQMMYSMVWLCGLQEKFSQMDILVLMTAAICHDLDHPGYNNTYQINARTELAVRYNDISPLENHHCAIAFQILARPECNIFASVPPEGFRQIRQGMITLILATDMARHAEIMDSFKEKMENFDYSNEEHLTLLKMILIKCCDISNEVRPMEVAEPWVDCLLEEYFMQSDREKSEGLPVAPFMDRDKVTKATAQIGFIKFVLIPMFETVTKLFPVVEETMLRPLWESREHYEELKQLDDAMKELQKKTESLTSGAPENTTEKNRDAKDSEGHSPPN

Sequence of human PDE9A (O76083 whole entry): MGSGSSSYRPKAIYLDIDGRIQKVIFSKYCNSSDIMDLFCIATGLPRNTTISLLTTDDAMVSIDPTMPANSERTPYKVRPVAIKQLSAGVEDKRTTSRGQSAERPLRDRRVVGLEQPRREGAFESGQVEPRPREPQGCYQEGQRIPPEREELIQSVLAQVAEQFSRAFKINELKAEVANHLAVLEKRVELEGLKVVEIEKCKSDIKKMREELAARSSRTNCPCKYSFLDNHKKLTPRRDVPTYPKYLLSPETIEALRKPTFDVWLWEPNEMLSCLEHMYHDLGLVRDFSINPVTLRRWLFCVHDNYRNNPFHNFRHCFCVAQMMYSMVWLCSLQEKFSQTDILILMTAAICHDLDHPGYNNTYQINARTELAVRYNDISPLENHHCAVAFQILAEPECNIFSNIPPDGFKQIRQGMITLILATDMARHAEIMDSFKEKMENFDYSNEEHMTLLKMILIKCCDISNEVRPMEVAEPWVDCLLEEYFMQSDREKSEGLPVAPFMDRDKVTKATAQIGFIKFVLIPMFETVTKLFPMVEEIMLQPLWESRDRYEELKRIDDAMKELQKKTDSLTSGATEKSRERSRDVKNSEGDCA
Sequence of human PDE9A2 (O76083 other isoform, or with tags, fused parts or gaps): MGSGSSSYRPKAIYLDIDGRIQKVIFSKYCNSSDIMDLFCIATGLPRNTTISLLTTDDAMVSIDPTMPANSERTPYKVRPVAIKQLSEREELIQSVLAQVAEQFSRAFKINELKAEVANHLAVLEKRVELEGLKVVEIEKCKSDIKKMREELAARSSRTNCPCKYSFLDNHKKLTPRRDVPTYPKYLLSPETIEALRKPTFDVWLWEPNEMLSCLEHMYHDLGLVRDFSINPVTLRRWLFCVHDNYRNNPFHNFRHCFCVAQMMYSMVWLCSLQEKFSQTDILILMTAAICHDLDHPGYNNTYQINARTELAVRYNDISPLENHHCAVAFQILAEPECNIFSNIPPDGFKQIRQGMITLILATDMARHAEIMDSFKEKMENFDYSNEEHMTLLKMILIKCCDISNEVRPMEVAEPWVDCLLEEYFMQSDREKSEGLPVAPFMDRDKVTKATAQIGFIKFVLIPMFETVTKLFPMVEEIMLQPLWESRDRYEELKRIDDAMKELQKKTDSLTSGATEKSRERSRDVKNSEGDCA

| SMILES | inhibition on the isolated enzyme [3] | other results |
| --- | --- | --- |
| CC(C)(C)c1cccc(-c2ccccc2Cc2nc3c(cnn3C3CCOCC3)c(=O)[nH]2)n1 [Example 259] | – | inhibition at 10 µM ([1]; PDE9A2, 10 microM test compound, read-out: I % (at 10 microM): inhibition at 10 micromolar concentration): 102%; IC50 ([1]; human PDE9A2, cGMP 20 nanomolar, read-out: IC50 values for PDE9A2 inhibition): 0.003 µM; S: selectivity values [= (IC50 for PDE1C inhibition)/(IC50 for PDE9A2 inhibition)] [2]: 942 |
| CC(C)Cn1c(=O)n(C)c(=O)c2[nH]cnc21 [IBMX] | no inhibition | inhibition of murine PDE9A ([4]; concentrations below 200 micromolar): not inhibited |
| CC(=O)Nc1ccc(-c2c[nH]c(=O)cn2)cc1 [SKF94120] | no inhibition | – |
| OCCN(CCO)c1nc(N2CCCCC2)c2nc(N(CCO)CCO)nc(N3CCCCC3)c2n1 [dipyridamole] | no inhibition | – |
| COc1ccc(C2CNC(=O)C2)cc1OC1CCCC1 (stereo not shown) [rolipram] | no inhibition | – |
| CCOC(=O)C1=C[C@]2(CC)CCCN3CCc4c(n1c1ccccc41)[C@@H]32 [vinpocetine] | no inhibition | – |
| CCCOc1ccccc1-c1nc2nn[nH]c2c(=O)[nH]1 [zaprinast] | – | IC50 ([4]; murine PDE9A): 29 µM |
